Active and inactive are the calls of the source.
How the values were obtained:
Kallikrein-7 = Kallikrein-7 (Homo sapiens, UniProt P49862); experiment: Fluorescence Intensity-based biochemical primary high throughput dose response assay to identify activators of kallikrein-7 (K7) zymogen.
[1] = biological target: T1, Nucleotide-binding oligomerization domain-containing protein 1 (Homo sapiens, UniProt Q9Y239); experiment: NOD1 signaling inhibitors, SAR follow-up, revised (AID 2333); type: functional
T1 sequence (Q9Y239 whole entry): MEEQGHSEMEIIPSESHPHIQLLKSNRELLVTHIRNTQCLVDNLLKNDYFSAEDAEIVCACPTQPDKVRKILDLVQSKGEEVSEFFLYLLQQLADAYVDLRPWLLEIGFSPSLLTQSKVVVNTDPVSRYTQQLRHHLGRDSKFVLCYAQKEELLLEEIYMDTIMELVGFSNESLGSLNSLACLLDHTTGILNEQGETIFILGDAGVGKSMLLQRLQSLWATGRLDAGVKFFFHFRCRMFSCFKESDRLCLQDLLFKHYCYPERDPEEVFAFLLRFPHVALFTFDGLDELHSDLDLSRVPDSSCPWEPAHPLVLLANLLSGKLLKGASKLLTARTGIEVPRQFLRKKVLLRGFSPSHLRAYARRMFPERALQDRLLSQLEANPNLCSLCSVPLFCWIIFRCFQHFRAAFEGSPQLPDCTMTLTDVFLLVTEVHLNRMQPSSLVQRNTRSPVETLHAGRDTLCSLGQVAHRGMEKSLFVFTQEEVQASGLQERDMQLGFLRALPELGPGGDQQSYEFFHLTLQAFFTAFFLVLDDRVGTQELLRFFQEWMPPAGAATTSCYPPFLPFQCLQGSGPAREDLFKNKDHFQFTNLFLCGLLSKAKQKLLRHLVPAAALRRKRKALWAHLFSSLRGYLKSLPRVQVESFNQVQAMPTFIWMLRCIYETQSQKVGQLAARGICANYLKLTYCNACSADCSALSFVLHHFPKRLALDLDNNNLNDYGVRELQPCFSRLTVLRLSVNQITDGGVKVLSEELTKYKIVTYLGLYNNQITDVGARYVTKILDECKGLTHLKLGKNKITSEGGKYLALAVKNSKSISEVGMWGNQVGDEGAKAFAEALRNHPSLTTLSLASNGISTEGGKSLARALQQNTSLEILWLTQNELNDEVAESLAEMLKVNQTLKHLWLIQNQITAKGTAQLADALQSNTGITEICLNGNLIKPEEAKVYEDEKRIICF

HEK293 [2] = experiment: NOD2 signaling inhibitors in MDP-stimulated cells, cell-based, uHTS, luminescence (AID 2001); type: functional; conditions: Homo sapiens
[3] = reduction of Shn3 3'UTR firefly luciferase signal, dose response, Schnurri-3 inhibitor project, cell-based, Clone20 osteoblasts, cherry-pick, set 2 (AID 720490); type: functional;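 note: actives lower the luminescence signal as inhibitors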
[4] = control 3'UTR Renilla luciferase suppression, dose response, counter-screen for Shn3 inhibitor project, cell-based, Clone20-Shn3RL, cherry-picked (AID 624133); type: functional
HEK293 [5] = experiment: cells; conditions: Homo sapiens
HEK293 [6] = experiment: NOD1 signaling inhibitors, primary screen, cell-based, luminescence, uHTS (AID 1578); type: functional; conditions: Homo sapiens
HEK293 [7] = experiment: cells; type: functional, cell-based; conditions: Homo sapiens
[8] = HepG2 cell cytotoxicity, dose response, cytotoxicity control for Shn3 inhibitor project, CellTiter-Glo, cherry-picked (AID 624134); type: functional, cell-based
[9] = Shn3 3'UTR reporter inhibitors, dose response, cell-based, Clone20 osteoblasts, firefly luciferase, cherry-picked (AID 624132); type: functional;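 note: firefly luciferase luminescence from reporter carrying the Shn3 3'UTR in osteoblasts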
HEK293 [10] = experiment: cells; type: functional, cell-based; conditions: Homo sapiens; remark: listed apart in the source
[11] = inhibitors of control Renilla luciferase reporter, dose response, counter-screen for Shn3 3'UTR targeting project, Clone20-Shn3RL cells, dual-Glo, cherry-pick, set 2 (AID 720724); type: functional, cell-based; conditions: Dual-Go Shn3RL
Tumor necrosis factor = Tumor necrosis factor (Homo sapiens, UniProt P01375); experiment: TNFa-triggered NF-kB activation inhibitors, SAR follow-up, cell-based, revised (AID 2337); type: functional
fMet-Leu-Phe receptor = fMet-Leu-Phe receptor (Homo sapiens, UniProt P21462); experiment: FPR ligands, dose response (AID 519); type: functional
fMet-Leu-Phe receptor, sequence (P21462 whole entry): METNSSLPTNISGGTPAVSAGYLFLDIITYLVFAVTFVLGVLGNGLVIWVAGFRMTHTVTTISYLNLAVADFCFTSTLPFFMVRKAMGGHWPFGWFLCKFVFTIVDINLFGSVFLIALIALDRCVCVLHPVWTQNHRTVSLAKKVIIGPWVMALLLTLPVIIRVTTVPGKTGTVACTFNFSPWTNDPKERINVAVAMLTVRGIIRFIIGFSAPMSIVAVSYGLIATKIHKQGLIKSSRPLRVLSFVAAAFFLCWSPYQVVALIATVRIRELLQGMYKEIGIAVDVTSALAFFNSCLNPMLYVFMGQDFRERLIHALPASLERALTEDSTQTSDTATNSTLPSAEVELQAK

Kallikrein-7, sequence (P49862 whole entry, the tested form may be a part): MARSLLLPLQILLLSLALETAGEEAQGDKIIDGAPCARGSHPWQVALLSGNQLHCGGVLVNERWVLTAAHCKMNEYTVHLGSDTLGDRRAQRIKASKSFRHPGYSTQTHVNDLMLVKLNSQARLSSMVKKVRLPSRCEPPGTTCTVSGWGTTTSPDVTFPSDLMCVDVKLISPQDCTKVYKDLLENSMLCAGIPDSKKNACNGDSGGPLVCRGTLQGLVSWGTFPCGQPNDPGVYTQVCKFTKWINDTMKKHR
Tumor necrosis factor, sequence (P01375 whole entry): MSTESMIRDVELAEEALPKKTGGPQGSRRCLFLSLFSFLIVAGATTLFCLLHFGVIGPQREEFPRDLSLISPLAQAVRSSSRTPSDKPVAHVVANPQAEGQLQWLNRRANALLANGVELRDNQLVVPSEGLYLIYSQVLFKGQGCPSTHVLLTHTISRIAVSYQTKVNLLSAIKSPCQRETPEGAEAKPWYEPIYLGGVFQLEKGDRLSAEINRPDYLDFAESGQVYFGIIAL

EC50 (Kallikrein-7) | Structure (SMILES) | AC50 [3] | AC50 [4] | AC50 [8] | AC50 [9] | AC50 [11] | also measured
> 69.6 µM (inactive) | COCCNC(=O)Cc1c(C)c2cc3c(cc2oc1=O)OC(C)(C)CC3 | – | – | – | – | – | –
– | c1ccc(CNc2ncnc3scc(-c4cccs4)c23)nc1 | 3.71 µM (active) | 29.8 µM (active) | 67.1 µM (active) | 3.59 µM (active) | 6.34 µM (active) | IC50 [1]: 2.69 µM (active); IC50 (HEK293 [2]): 5.05 µM (active); IC50 (HEK293 [5]): 13.5 µM (active); EC50 (HEK293 [6]): 3.58 µM (active); IC50 (HEK293 [7]): 19.8 µM (active); IC50 (HEK293 [10]): 6 µM (active); IC50 (Tumor necrosis factor): 3.22 µM (active)
> 69.5 µM (inactive) | COCCCn1c(C(=O)NCCN2CCOCC2)cc2c(=O)n3cccc(C)c3nc21 | – | – | – | – | – | –
– | CCn1cc(CN(C)S(=O)(=O)c2ccc3ccccc3c2)c(C)n1 | 2.23 µM (active) | 22.8 µM (active) | 39.4 µM (active) | 1.56 µM (active) | 1.8 µM (active) | –
– | COc1ccccc1C1C(C(=O)c2ccccc2)=C(O)C(=O)N1CC(C)C (stereo not given) | – | – | – | – | – | Ki (fMet-Leu-Phe receptor): 5.5 µM (active)
